For the assay, the system named is P. mathanolica cells (strain CBS6515, UV-mutagenized). Kind of assay: Nystatin enrichment for auxotrophic mutants: titering of colony forming units, nystatin-treated versus control cells. It counts as cell-based, Pichia methanolica. As to conditions: 1 mg nystatin added to remainder of 500 ml culture in minimal broth with 5 g/L ammonium sulfate, incubated one additional hour; versus control cells without nystatin. How it is done: The cells are then transferred to a culture medium deficient in assimilable nitrogen so that cellular nitrogen stores are depleted. By "deficient in assimilable nitrogen" it is meant that the medium lacks an amount of nitrogen sufficient to support growth of the cells. Depletion of cellular nitrogen stores will generally require about 12 to 24 hours of incubation, with 16 hours being sufficient under common conditions. Following depletion of nitrogen stores, the cells are cultured in a defined culture medium comprising an inorganic nitrogen source and an amount of an antifungal antibiotic sufficient to kill growing P. mathanolica cells. The antibiotic nystatin (mycostatin) is particularly preferred. Preferred inorganic nitrogen sources are those comprising ammonium ions, such as ammonium sulfate. In general, the medium will contain 10-200 mM ammonium, preferably about 60 mM ammonium. Nystatin is included at a concentration of 0.1 to 100 mg/l, preferably 0.5 to 20 mg/L, more preferably about 2 mg/L ([…]). […] Those skilled in the art will recognize that the actual antibiotic concentration and exposure time required to kill prototrophic cells can be readily determined empirically,and certain adjustments may be necessary to compensate for variations in specific activity between individual batches of antibiotic. […]

On to `C[C@@H]1[C@H](O)[C@@H](C)/C=C/C=C/CC/C=C/C=C/C=C/C=C/C(O[C@H]2O[C@H](C)[C@@H](O)[C@H](N)[C@@H]2O)CC2O[C@](O)(CC(O)C(O)CCC(O)CC(O)CC(O)CC(=O)O[C@H]1C)CC(O)C2C(=O)O` (stereo partly shown) [nystatin], for which the “decrease in the number of viable cells (colony forming units), factor” value is on record as 10^4.

The record behind these values is patent US6001597A, “Compositions and methods for producing heterologous polypeptides in Pichia methanolica” (ZymoGenetics, Inc., priority 1998, dated 1999).
